Data set [1] addresses recombinant human LDHB (Homo sapiens, UniProt P07195). Briefly: recombinant human LDHB enzyme assay (lactate to pyruvate, NADH via diaphorase/resazurin). In general terms: Alamar Blue is a resazurin reagent that responds to reducing activity.
Data set [2] concerns Snu398 cells. Kind of data set: Lactate production assay, Snu398 (RapidFire-MS).
In data set [3] the test system is Snu398 cells. Kind of data set: Compound cellular permeability assay, whole-cell extract. In kind it is in vitro ADME, human. As to conditions: Snu398 treated with 1 μM for 1.5 h. The protocol:
Compound cellular permeability assays For cytosolic permeability assay, twelve million Snu398 cells were allowed to attach overnight and treated with DMSO control or 1 µM Compound 2 for 1.5 h in 1.7 mM glucose medium. The medium was removed, cells were washed in phosphate-buffered saline (PBS), and cytosolic extracts were prepared by solubilization in Qproteome lysis buffer (Qiagen, Valencia, CA). For whole-cell permeability assay, 75,000 Snu398 cells/well were plated in 96-well plates and treated with DMSO control or 1 µM compounds for 1.5h in low glucose medium. The medium was removed, cells were washed in PBS and solubilized in 50:50 mixture of methanol and acetonitrile. Compound concentration in the cytosolic or whole-cell extract was determined by LC/MS/MS analysis. An Acquity UPLC system (Waters Inc., Milford, MA) was coupled to an API 4000 or API 5000 triple-quad mass spectrometer (Applied Biosystems). […] Compound concentration in cells was determined by counting the number of cells in sample wells and assuming 3 pL/cell volume.

Data set [4] addresses recombinant human LDHA (Homo sapiens, UniProt P00338). Kind of data set: recombinant human LDHA enzyme assay (lactate to pyruvate, NADH via diaphorase/resazurin).

The structures appear in SMILES notation.

This is an account of results in article PMC4178217, “Quinoline 3-sulfonamides inhibit lactate dehydrogenase A and reverse aerobic glycolysis in cancer cells” (Cancer & Metabolism, 2013).

In general, IC50 refers to the concentration at which inhibition is half-maximal. As a reminder, the EC50 is the concentration giving half of the maximal effect.

recombinant human LDHB, sequence (P07195 whole entry): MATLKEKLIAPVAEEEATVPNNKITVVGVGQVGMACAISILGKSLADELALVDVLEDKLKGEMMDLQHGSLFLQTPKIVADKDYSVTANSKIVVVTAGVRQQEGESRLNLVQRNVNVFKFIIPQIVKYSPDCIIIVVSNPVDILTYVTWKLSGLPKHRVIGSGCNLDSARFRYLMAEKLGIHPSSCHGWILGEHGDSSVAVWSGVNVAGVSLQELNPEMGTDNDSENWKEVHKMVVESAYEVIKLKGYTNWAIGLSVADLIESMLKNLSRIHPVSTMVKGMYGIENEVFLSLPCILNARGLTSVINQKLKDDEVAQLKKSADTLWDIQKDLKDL

In the case of `COc1ncc(-c2ccc3c(Nc4cc(Oc5ccc(F)cc5)cc(S(N)(=O)=O)c4)c(S(=O)(=O)NC4CC4)cnc3c2)c(OC)n1` [Compound 3], in data set [1], the IC50 worked out at 0.055 ± 0.009 µM. The EC50 in data set [2] (Homo sapiens, SNU-398, read-out: lactate production EC50) worked out at 3.3 ± 1.3 µM. In addition, the “apparent intracellular concentration versus medium” value in data set [3] is recorded as “higher apparent intracellular concentrations than that of the medium”.
As to `COc1ncc(-c2ccc3c(Nc4cc(Oc5ccc(F)cc5)cc(C(F)(F)F)c4)c(S(=O)(=O)NC4CC4)cnc3c2)c(OC)n1` [Compound 4], the 50% inhibitory concentration (IC50) in data set [1] and in data set [4] was above 50 µM throughout. Besides, in data set [2] (Snu398), the “effect on cellular lactate production” value is “does not affect cellular lactate”.
As to `COc1cc2c(Nc3cccc(C(=O)O)c3)c(C(N)=O)cnc2cc1-c1c(C)noc1C`, the “mode of LDHA inhibition” value in data set [4] is recorded as “NADH-competitive LDHA inhibitor”.
